Assay results published in US8962574B2 (Boehringer Ingelheim International GmbH, priority 2008, dated 2015).

What was measured:
[1] = test system: activated partial thromboplastin time (aPTT), ecarin clotting time, and thrombin clotting time; experiment: Coagulation tests
[2] = test system: patients with atrial fibrillation
Description: PETRO-Ex began while the PETRO study was ongoing and investigators were initially kept blinded to patient treatment group until PETRO was completed. Unblinding investigators to patient treatment was possible thereafter.
Data were summarized descriptively; no hypothesis was to be tested. Events were analyzed on the basis of the treatment at onset. Incidences were reported as number of patients with events as well as normalized to 100 patient-years on the respective treatment.
Written, informed consent was obtained from all patients.
Patients who completed PETRO on 50 mg b.i.d. were switched to 150 mg q.d. upon entry in the PETRO-Ex study (N=93 patients). […] Patients who were down titrated to 50 mg q.d. based on a glomerular filtration rate ≦50 mL/min during PETRO were excluded from the long-term trial; patients down-titrated in other dose levels remained on the q.d. treatment at that dose.
The total exposure reflects both trials, PETRO and PETRO-Ex, together.

[3] = test system: patients with atrial fibrillation at risk of stroke; experiment: RELY Clinical Trial, dabigatran 110 mg or 150 mg twice daily versus warfarin; format: in vivo
Description: The primary study outcome was stroke or systemic embolism. The primary safety outcome was major hemorrhage. Secondary outcomes were stroke, systemic embolism and death. […] All other bleeding was considered minor.
All analyses were based on intention-to-treat.

[4] = test system: patients with chronic atrial fibrillation; experiment: PETRO phase 2 12-week dose finding study; format: in vivo, human; settings: 12 weeks
Description: Primary endpoints were bleeding events and changes in D-dimer. […] Minor bleeding was dose related.

[5] = of the 16 on treatment cases with AST or ALT >3×ULN

[H]/N=C(/N)c1ccc(NCc2nc3cc(C(=O)N(CCC(=O)O)c4ccccn4)ccc3n2C)cc1 [dabigatran]
Prolongation of aPTT, ecarin clotting time, and thrombin clotting time [1]: dose dependent prolongation | Fatal bleeding events, rate ([2]; all doses): 0.5 % per year | LFT abnormality resolved after stopping, number of cases [2, 5]: 5 | LFT abnormality resolved with continuation, number of cases [2, 5]: 10 | Cases with an explanatory clinical diagnosis, number ([2]; of the 18 cases with AST or ALT >3×ULN): 9 | Rate of hemorrhagic stroke ([3]; 110 mg b.i.d.): 0.12 % per year | Rate of net benefit-risk outcome (major vascular events, major bleeding and death) ([3]; 110 mg b.i.d.): 7.37 % per year | Stroke, systemic embolism, pulmonary embolism, myocardial infarction death or major bleed (net benefit), Rate ([3]; 110 mg b.i.d.): 7.37 /100 Person Years | First Hospitalization, RR ([3]; 110 mg vs. Warfarin): 0.92 | Non-disabling Stroke Modified Rankin 0-2, RR ([3]; 110 mg vs. Warfarin): 0.87 | Stroke or systemic embolism, RR ([3]; 110 mg vs. Warfarin): 0.91 | Stroke, Hemorrhagic, RR ([3]; 110 mg vs. Warfarin): 0.31 | Stroke, RR ([3]; 110 mg vs. Warfarin): 0.92 | Stroke, systemic embolism, pulmonary embolism, myocardial infarction death or major bleed (net benefit), RR ([3]; 110 mg vs. Warfarin): 0.92 | Rate of hemorrhagic stroke ([3]; 150 mg b.i.d.): 0.10 % per year | Rate of net benefit-risk outcome (major vascular events, major bleeding and death) ([3]; 150 mg b.i.d.): 7.22 % per year | Stroke, systemic embolism, pulmonary embolism, myocardial infarction death or major bleed (net benefit), Rate ([3]; 150 mg b.i.d.): 7.22 /100 Person Years | Stroke, Ischemic or Unspecified, RR ([3]; 150 mg vs. 110 mg): 0.68 | Stroke, RR ([3]; 150 mg vs. 110 mg): 0.70 | Stroke, systemic embolism, pulmonary embolism, myocardial infarction death or major bleed (net benefit), RR ([3]; 150 mg vs. 110 mg): 0.98 | First Hospitalization, RR ([3]; 150 mg vs. Warfarin): 0.97 | Non-disabling Stroke Modified Rankin 0-2, RR ([3]; 150 mg vs. Warfarin): 0.62 | Stroke or systemic embolism, RR ([3]; 150 mg vs. Warfarin): 0.66 | Stroke, Hemorrhagic, RR ([3]; 150 mg vs. Warfarin): 0.26 | Stroke, Ischemic or Unspecified, RR ([3]; 150 mg vs. Warfarin): 0.76 | Stroke, RR ([3]; 150 mg vs. Warfarin): 0.64 | Stroke, systemic embolism, pulmonary embolism, myocardial infarction death or major bleed (net benefit), RR ([3]; 150 mg vs. Warfarin): 0.90 | Change in D-dimer levels [4]: comparable to warfarin
